Results published in ChEMBL document CHEMBL2396588, “Synthesis, biological evaluation and molecular modeling of substituted 2-aminobenzimidazoles as novel inhibitors of acetylcholinesterase and butyrylcholinesterase” (Bioorg Med Chem, 2013).

Columns and labels:
[1] = system: HepG2; test: (§1) Cytotoxicity against human HepG2 cells assessed as cell viability at 100 uM after 48 hrs by MTT assay; format: cell-based; conditions: hepg2, 48 h, 100 µM
[2] = system: PC-12; test: Cytotoxicity against rat PC12 cells assessed as cell viability at 100 uM after 48 hrs by MTT assay; format: cell-based; conditions: pc-12, 48 h
[3] = target: Acetylcholinesterase (Homo sapiens, UniProt P22303); test: Inhibition of human AchE using acetylthiocholine iodide as substrate incubated for 20 mins prior to substrate addition measured for 1 hr by Ellman's method
[4] = target: Cholinesterase (Homo sapiens, UniProt P06276); test: Inhibition of human BuChE using butyrylthiocholine iodide as substrate incubated for 20 mins prior to substrate addition measured for 1 hr by Ellman's method
[5] = organism: Homo sapiens; test: Selectivity ratio of IC50 for human AChE to IC50 for human BuChE
[6] = as §1; format: cell-based; conditions: HepG2 cells, read-out: Activity

Chain of Cholinesterase (P06276 whole entry): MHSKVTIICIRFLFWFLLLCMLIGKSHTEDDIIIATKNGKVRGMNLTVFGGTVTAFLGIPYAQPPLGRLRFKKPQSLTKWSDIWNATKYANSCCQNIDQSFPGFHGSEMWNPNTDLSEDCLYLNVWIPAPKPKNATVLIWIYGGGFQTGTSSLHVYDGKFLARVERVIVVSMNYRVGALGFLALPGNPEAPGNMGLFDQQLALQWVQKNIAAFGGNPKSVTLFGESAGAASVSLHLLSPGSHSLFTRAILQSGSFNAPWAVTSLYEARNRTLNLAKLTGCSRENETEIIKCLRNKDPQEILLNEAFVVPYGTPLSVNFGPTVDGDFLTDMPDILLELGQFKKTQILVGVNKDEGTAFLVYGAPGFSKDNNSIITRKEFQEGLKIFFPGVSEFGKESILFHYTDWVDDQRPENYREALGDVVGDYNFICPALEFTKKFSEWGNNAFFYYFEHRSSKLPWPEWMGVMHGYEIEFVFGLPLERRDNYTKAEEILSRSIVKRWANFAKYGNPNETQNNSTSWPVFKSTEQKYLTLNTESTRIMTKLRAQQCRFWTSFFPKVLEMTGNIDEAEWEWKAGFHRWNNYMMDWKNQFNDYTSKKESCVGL
Chain of Acetylcholinesterase (P22303 whole entry): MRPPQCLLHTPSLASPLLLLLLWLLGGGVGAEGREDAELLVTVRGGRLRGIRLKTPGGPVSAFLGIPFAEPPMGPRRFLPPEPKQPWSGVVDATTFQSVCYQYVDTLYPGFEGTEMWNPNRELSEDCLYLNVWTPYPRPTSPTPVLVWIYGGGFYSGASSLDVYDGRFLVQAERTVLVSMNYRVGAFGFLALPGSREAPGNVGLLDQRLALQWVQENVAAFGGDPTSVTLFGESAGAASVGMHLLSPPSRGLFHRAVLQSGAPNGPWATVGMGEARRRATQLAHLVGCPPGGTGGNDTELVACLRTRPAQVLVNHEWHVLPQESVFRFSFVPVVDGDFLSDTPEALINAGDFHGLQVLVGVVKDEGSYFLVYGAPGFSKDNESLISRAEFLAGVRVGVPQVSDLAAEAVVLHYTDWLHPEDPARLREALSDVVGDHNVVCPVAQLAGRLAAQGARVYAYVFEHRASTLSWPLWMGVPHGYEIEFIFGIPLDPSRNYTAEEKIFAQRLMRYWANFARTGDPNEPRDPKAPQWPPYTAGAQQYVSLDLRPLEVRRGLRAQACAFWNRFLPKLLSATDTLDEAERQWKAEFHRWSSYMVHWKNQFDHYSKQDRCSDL

Compound | Activity [1] | Activity [2] | IC50 [3] | IC50 [4] | Ratio IC50 [5] | viability at 48 h, 100 µM [6]
c1ccc2[nH]c(N3CCCCC3)nc2c1 | Non-toxic | Non-toxic | 59.2 µM | 1.57 µM | 37.7 | 
CN(C)CCCN(c1nc2ccccc2[nH]1)c1nc2ccccc2[nH]1 | Non-toxic | Non-toxic | 59.7 µM | 2.26 µM | 26.4 | 
NCCNc1nc2ccccc2[nH]1 | Non-toxic | Non-toxic | > 100 µM | > 100 µM |  | 
CCN(CC)CCCNc1nc2ccccc2[nH]1 | Non-toxic | Non-toxic | > 100 µM | > 100 µM |  | 
CCCCN(C)c1nc2ccccc2n1C | Non-toxic | Non-toxic | > 100 µM | > 100 µM |  | 
CCCCNc1nc2ccccc2[nH]1 |  |  | > 100 µM | 61 µM |  | 85.2%
c1ccc2c(c1)CCCN2c1nc2ccccc2[nH]1 | Non-toxic | Non-toxic | > 100 µM | > 100 µM |  | 
c1ccc(Nc2nc3ccccc3[nH]2)nc1 | Non-toxic | Non-toxic | > 100 µM | > 100 µM |  | 
CCCCNc1nc2ccccc2n1C | Non-toxic | Non-toxic | > 100 µM | > 100 µM |  | 
CC(C)(C)OC(=O)NCCNc1nc2ccccc2[nH]1 | Non-toxic | Non-toxic | > 100 µM | 71.9 µM |  | 
COCCNc1nc2ccccc2[nH]1 | Non-toxic | Non-toxic | > 100 µM | > 100 µM |  | 
CC1CCCCN1c1nc2ccccc2[nH]1 (configuration not stated) | Non-toxic | Non-toxic | 88.9 µM | 2.03 µM | 43.8 | 
c1ccc(CCCNc2nc3ccccc3[nH]2)cc1 | Non-toxic | Non-toxic | > 100 µM | > 100 µM |  | 
c1ccc2[nH]c(NC34CC5CC(CC(C5)C3)C4)nc2c1 | Non-toxic | Non-toxic | > 100 µM | > 100 µM |  | 
CCCCN(C)c1nc2ccccc2[nH]1 | Non-toxic | Non-toxic | > 100 µM | > 100 µM |  | 
